# US20220081389A1, “AMIDE COMPOUNDS AND PREPARATION METHOD THEREFOR AND USE THEREOF” (CAC NANTONG CHEMICAL CO., LTD., priority 2019, published 2022)
# Where two headings read alike, the source gives them in different places.
# How the values were obtained:
# [1] = tested on: Spodoptera frugiperda; experiment: Insecticidal activity test against Spodoptera frugiperda (leaf dip, maize seedlings); format: in vivo; conditions: for mortality at 1 ppm / mortality at 0.1 ppm: Spodoptera frugiperda, foliar; for mortality at 1 ppm: read-out: insecticidal activity (mortality of Spodoptera frugiperda); for Mortality (%) against Spodoptera frugiperda, 1 d / Mortality (%) against Spodoptera frugiperda, 2 d / Mortality (%) against Spodoptera frugiperda, 3 d: 0.1 ppm, leaf dip, 3rd-instar larvae; for Mortality (%) against Spodoptera frugiperda, 1 d: 1st day after treatment; for Mortality (%) against Spodoptera frugiperda, 2 d: 2nd day after treatment; for Mortality (%) against Spodoptera frugiperda, 3 d: 3rd day after treatment
# Experimental: (§1) Various kinds of pests were tested with the compounds of this invention. Unless otherwise specified, the preparation method of samples and definition of the mortality rate of the insects in the embodiments and this invention are as follows: the preparation method of samples is to weigh 10 mg of the compound and dissolve it in 1 mL DMF to prepare 10,000 ppm mother liquid, which is diluted to necessary concentration by 0.05% Tween-80 water, respectively. The mortality rate is the mortality rate of pests under the test concentration, whose calculating formula is: mortality rate (%)=Number of dead pests/total pests*100
# (§2) The leaf dip method was used to assay the insecticidal activity. Cut above ground part of fresh maize seedlings (about 10 cm). Dip the maize seedlings into the solution prepared with compound of this invention for 10 seconds and dry them in a cool environment. Then cut the dry maize seedlings into 3-5 cm leaf sections and put 3 leaf sections into each petri dish. Put ten of 3th-instar larvae of Spodoptera frugiperda into each dish, which was repeated by 3 times. Then the dishes were placed in an illumination incubator and incubated with 14 hL: 10 hD illumination at 25° C. Symptoms were investigated on the 1st, 2nd and 3rd day after treatment, and the mortality was calculated.
# [2] = tested on: Mythimna separata; experiment: Insecticidal activity test against Mythimna separata (leaf dip, maize seedlings); format: in vivo; conditions: foliar; for mortality at 0.04 ppm: 3rd day after treatment, read-out: insecticidal activity (mortality of Mythimna separate)
# Experimental: as §1
# as §2, with “Mythimna separatas” for “Spodoptera frugiperda”
# [3] = tested on: Chilo suppressalis; experiment: Insecticidal activity test against Chilo suppressalis (rice stem dip); format: in vivo
# Experimental: as §1
# The rice was cultivated in a plastic pot with a diameter of 9 cm and a height of 10 cm. When the rice grew to 25 cm, the aerial part of robust and consistent rice seedlings was selectively cut. Their leaves were removed and their stems of about 8 cm were kept for use. Pour the solution prepared with compound of this invention into the Petri dish (about 40 mL) and dip the rice stems into the solution for 10 seconds. Take rice stems out and dry them in a cool environment. Put a wet cotton ball at the bottom of finger-like glass tube and 5 rice stems in each tube. Put 10 of 3rd-instar larvae of Chilo suppressa into each tube, which was repeated by 3 times. Seal the tubes with black cotton cloth and tighten them with rubber band. The tubes were placed in a illumination incubator at 28° C. and incubated in the dark (incubated without light). The dead number of Chilo suppressalis was investigated 3 days after treatment. The mortality was calculated.
# [4] = tested on: Spodoptera litura; experiment: Insecticidal activity test against Spodoptera litura (leaf dip, cabbage leaf discs); format: in vivo; conditions: foliar; for mortality at 0.4 ppm: 3rd day after treatment; for mortality at 0.04 ppm / mortality at 0.1 ppm: 72 h, 3 d
# Experimental: as §1
# The leaf dip method was used to assay the insecticidal activity. Healthy and pesticide-untreated cabbage leaves was selected to prepare 1 cm of leaf discs by diameter. Dip the leaf discs into the solution prepared with compound of this invention for 10 seconds and dry them in a cool […] environment. Then place them in 24-well plate with 3 discs per pore. Put 10 of Spodoptera litura into each pore, which was repeated by 3 times. The 24-well plate was placed in an illumination incubator and incubated with 14 hL: 10 hD illumination at 25° C. The dead number of Spodoptera litura was investigated on the 3rd day after treatment, and the mortality was calculated.
# [5] = tested on: Aphis craccivora; experiment: Insecticidal activity test against Aphis craccivora (broad bean leaf dip); format: in vivo
# Experimental: as §1
# Cut a single leaf of broad bean with stem and insert it into a glass jar filled with water (capacity of 20 ml). Five adult Aphis craccivoras were seeded onto each leaf, and covered with plastic cups with holes. The adult aphids were removed after 24 hours. Before the experiment, the base number was investigated and the single leaf with more than 15 nymphs aphids was selected for the experiment. Dip leaf of broad bean with nymphs aphids into the solution of test compound 10s, take out and dry them in a cool environment, 3 parallel repeats. Place the glass jars on the shelf of observation room and covered with plastic cups with holes. 20-25° C. with 14 hL: 10 hD illumination. The number of Aphis craccivora death and alive was investigated on the 3rd day after treatment, and the mortality was calculated.
# [6] = 3rd day after treatment, read-out: insecticidal activity (mortality of Chilo suppressalis)
# [7] = 72 h, 3 d, read-out: Mortality (%, 3 d) 1 ppm
# [8] = 72 h, 3 d, read-out: Mortality (%, 3 d) 2 ppm
# [9] = Aphis craccivora, foliar, 40 ppm, 3rd day after treatment, read-out: insecticidal activity (mortality of Aphis craccivora)
# [10] = 24 h, read-out: Mortality (%) against Spodoptera frugiperda, 1 d
# [11] = 48 h, read-out: Mortality (%) against Spodoptera frugiperda, 2 d
# [12] = 72 h, read-out: Mortality (%) against Spodoptera frugiperda, 3 d
# [13] = 24 h, 1 d, read-out: Mortality (%) 1 d
# [14] = 48 h, 2 d, read-out: Mortality (%) 2 d
# [15] = 72 h, 3 d, read-out: Mortality (%) 3 d
compound,measurement,setting,value
"O=C(Nc1c(Br)cc(C(F)(C(F)(F)F)C(F)(F)F)cc1OC(F)F)c1cccc(N(CC2CC2)C(=O)c2ccccc2)c1F [Compound 1, N-(2-bromo-4-(perfluoropropan-2-yl)-6-(difluoromethoxy)phenyl)-3-(N-(cyclopropylmethyl)benzamido)-2-fluorobenzamide]",mortality at 1 ppm,[1],≥ 90%
same,mortality at 0.04 ppm,[2],≥ 90%
same,mortality at 1 ppm,[3]; [6],≥ 90%
same,mortality at 0.5 ppm,"[3]; 72 h, 3 d",76.7%
same,mortality at 1 ppm,[3]; [7],96.7%
same,mortality at 2 ppm,[3]; [8],100%
same,mortality at 0.4 ppm,[4],≥ 90%
N#Cc1ccc(C(=O)N(CC2CC2)c2cccc(C(=O)Nc3c(Br)cc(C(F)(C(F)(F)F)C(F)(F)F)cc3OC(F)F)c2F)cc1 [Compound 14],"Mortality (%) against Spodoptera frugiperda, 1 d",[1],29.17%
same,"Mortality (%) against Spodoptera frugiperda, 2 d",[1],79.17%
same,"Mortality (%) against Spodoptera frugiperda, 3 d",[1],95.83%
"N#Cc1ccc(C(=O)N(CC2CC2)c2cccc(C(=O)Nc3c(Br)cc(C(C(F)(F)F)C(F)(F)F)cc3OC(F)F)c2F)cc1 [Compound 26, N-(2-bromo-6-(difluoromethoxy)-4-(1,1,1,3,3,3-hexafluoropropan-2-yl)phenyl)-3-(4-cyano-N-(cyclopropylmethyl)benzamido)-2-fluorobenzamide]",melting point,,133.1 to 135.5 °C
"O=C(Nc1c(Br)cc(C(F)(C(F)(F)F)C(F)(F)F)cc1OC(F)F)c1cccc(N(CC2CC2)C(=O)c2ccc(F)cc2)c1F [Compound 31, N-(2-bromo-6-(difluoromethoxy)-4-(perfluoropropan-2-yl)phenyl)-3-(N-(cyclopropylmethyl)-4-fluorobenzamido)-2-fluorobenzamide]",mortality at 40 ppm,[5]; [9],≥ 90%
same,mortality at 0.1 ppm,[1]; [10],100%
same,mortality at 0.1 ppm,[1]; [11],100%
same,mortality at 0.1 ppm,[1]; [12],100%
same,mortality at 1 ppm,[1],≥ 90%
same,mortality at 0.04 ppm,[2],≥ 90%
same,mortality at 0.01 ppm,[2]; [13],13.3%
same,mortality at 0.01 ppm,[2]; [14],63.3%
same,mortality at 0.01 ppm,[2]; [15],70%
same,mortality at 1 ppm,[3]; [6],≥ 90%
same,mortality at 0.5 ppm,"[3]; 72 h, 3 d",83.3%
same,mortality at 1 ppm,[3]; [7],100%
same,mortality at 2 ppm,[3]; [8],100%
same,mortality at 0.4 ppm,[4],≥ 90%
O=C(Nc1c(Br)cc(C(F)(C(F)(F)F)C(F)(F)F)cc1OC(F)F)c1cccc(N(CC2CC2)C(=O)c2ccc(Cl)cc2)c1F [Compound 44],"Mortality (%) against Spodoptera frugiperda, 1 d",[1],37.50%
same,"Mortality (%) against Spodoptera frugiperda, 2 d",[1],62.50%
same,"Mortality (%) against Spodoptera frugiperda, 3 d",[1],91.67%
O=C(Nc1c(Br)cc(C(F)(C(F)(F)F)C(F)(F)F)cc1C(F)(F)F)c1cccc(N(CC2CC2)C(=O)c2ccncc2)c1F [Compound 101],"Mortality (%, 3 d) 1 ppm","[5]; 1 ppm, 3 d",39.11%
same,"Mortality (%, 3 d) 10 ppm","[5]; 10 ppm, 3 d",83.26%
same,"Mortality (%, 3 d) 40 ppm","[5]; 40 ppm, 3 d",100.00%
"O=C(Nc1c(Br)cc(C(F)(C(F)(F)F)C(F)(F)F)cc1C(F)(F)F)c1cccc(N(CC2CC2)C(=O)c2ccc(F)nc2)c1F [Compound 106, N-(3-((2-bromo-4-(perfluoropropan-2-yl)-6-(trifluoromethyl)phenyl)carbamoyl)-2-fluorophenyl)-N-(cyclopropylmethyl)-6-fluoronicotinamide]",mortality at 0.1 ppm,[1]; [10],41.7%
same,mortality at 0.1 ppm,[1]; [11],62.5%
same,mortality at 0.1 ppm,[1]; [12],95.8%
same,mortality at 1 ppm,[1],≥ 90%
same,mortality at 0.04 ppm,[2],≥ 90%
same,mortality at 1 ppm,[3]; [6],≥ 90%
same,mortality at 0.4 ppm,[4],≥ 90%
"O=C(Nc1c(Br)cc(C(F)(C(F)(F)F)C(F)(F)F)cc1OC(F)F)c1cccc(N(CC2CC2)C(=O)c2ccc(F)nc2)c1F [Compound 118, N-(3-((2-bromo-6-(difluoromethoxy)-4-(perfluoropropan-2-yl)phenyl)carbamoyl)-2-fluorophenyl)-N-(cyclopropylmethyl)-6-fluoronicotinamide]",mortality at 40 ppm,[5]; [9],≥ 90%
same,mortality at 0.1 ppm,[1]; [10],29.2%
same,mortality at 0.1 ppm,[1]; [11],66.7%
same,mortality at 0.1 ppm,[1]; [12],91.7%
same,mortality at 1 ppm,[1],≥ 90%
same,mortality at 0.04 ppm,[2],≥ 90%
same,mortality at 1 ppm,[3]; [6],≥ 90%
same,mortality at 0.4 ppm,[4],≥ 90%
same,mortality at 0.04 ppm,[4],66.7%
same,mortality at 0.1 ppm,[4],95.8%
O=C(Nc1c(Br)cc(C(F)(C(F)(F)F)C(F)(F)F)cc1OC(F)F)c1cccc(N(CC2CC2)C(=O)c2ccnc(Cl)c2)c1F [Compound 119],"Mortality (%) against Spodoptera frugiperda, 1 d",[1],54.17%
same,"Mortality (%) against Spodoptera frugiperda, 2 d",[1],79.17%
same,"Mortality (%) against Spodoptera frugiperda, 3 d",[1],91.67%
O=C(Nc1c(Br)cc(C(F)(C(F)(F)F)C(F)(F)F)cc1OC(F)F)c1cccc(N(CC2CC2)C(=O)c2ccnc(F)c2)c1F [Compound 120],"Mortality (%) against Spodoptera frugiperda, 1 d",[1],58.33%
same,"Mortality (%) against Spodoptera frugiperda, 2 d",[1],100%
same,"Mortality (%) against Spodoptera frugiperda, 3 d",[1],100%
"CC(C1CC1)N(C(=O)c1ccnc(Cl)c1)c1cccc(C(=O)Nc2c(Br)cc(C(F)(C(F)(F)F)C(F)(F)F)cc2C(F)(F)F)c1F (stereo not drawn) [Compound 124, N-(3-((2-bromo-4-(perfluoropropan-2-yl)-6-(trifluoromethyl)phenyl)carbamoyl)-2-fluorophenyl)-2-chloro-N-(1-cyclopropylethyl)isonicotinamide]",mortality at 2 ppm,[3]; [6],≥ 90%
"CCN(C(=O)c1ccc(F)cc1)c1cccc(C(=O)Nc2c(Br)cc(C(F)(C(F)(F)F)C(F)(F)F)cc2OC(F)F)c1F [KC1, reference compound]",mortality at 0.01 ppm,[2]; [13],6.67%
same,mortality at 0.01 ppm,[2]; [14],16.7%
same,mortality at 0.01 ppm,[2]; [15],20%
"CCN(C(=O)c1ccncc1)c1cccc(C(=O)Nc2c(Br)cc(C(F)(C(F)(F)F)C(F)(F)F)cc2OC(F)F)c1F [KC2, reference compound]",mortality at 0.1 ppm,[1]; [10],0%
same,mortality at 0.1 ppm,[1]; [11],8.33%
same,mortality at 0.1 ppm,[1]; [12],20.8%
"O=C(Nc1c(Br)cc(C(F)(C(F)(F)F)C(F)(F)F)cc1OC(F)(F)F)c1cccc(N(CC2CC2)C(=O)c2ccccc2)c1F [KC3, reference compound]",mortality at 0.1 ppm,[1]; [10],0%
same,mortality at 0.1 ppm,[1]; [11],0%
same,mortality at 0.1 ppm,[1]; [12],4.17%
same,mortality at 0.5 ppm,"[3]; 72 h, 3 d",20%
same,mortality at 1 ppm,[3]; [7],80%
same,mortality at 2 ppm,[3]; [8],96.7%
"O=C(Nc1c(Br)cc(C(F)(C(F)(F)F)C(F)(F)F)cc1C(F)(F)F)c1cccc(N(CC2CC2)C(=O)c2ccc(F)cc2)c1F [KC4, reference compound]",mortality at 1 ppm,"[5]; Aphis craccivora, foliar, 72 h, 1 ppm, 3 d",0%
same,mortality at 10 ppm,"[5]; Aphis craccivora, foliar, 72 h, 10 ppm, 3 d",47.1%
same,mortality at 40 ppm,"[5]; Aphis craccivora, foliar, 72 h, 40 ppm, 3 d, read-out: Mortality (%, 3 d) 40 ppm",65.2%
same,mortality at 0.04 ppm,[4],8.83%
same,mortality at 0.1 ppm,[4],75%
